# In PMC9556845 (Frontiers in Microbiology, 2022):
# Entries after “also recorded” stand apart in the source; their conditions may differ. Read-outs that look alike come from different tables or passages of the source.
# Tests used:
# Type in all cases: biochemical
# PTP1B = biological target: T1, PTP1B (Homo sapiens, UniProt P18031); assay: Inhibition of protein tyrosine phosphatase (PTPs) assay, pNPP substrate: PTP1B; conditions: for inhibitory activity against PTP1B (in words): in vitro, compared with Na3VO4
# T1 sequence (P18031 1-435): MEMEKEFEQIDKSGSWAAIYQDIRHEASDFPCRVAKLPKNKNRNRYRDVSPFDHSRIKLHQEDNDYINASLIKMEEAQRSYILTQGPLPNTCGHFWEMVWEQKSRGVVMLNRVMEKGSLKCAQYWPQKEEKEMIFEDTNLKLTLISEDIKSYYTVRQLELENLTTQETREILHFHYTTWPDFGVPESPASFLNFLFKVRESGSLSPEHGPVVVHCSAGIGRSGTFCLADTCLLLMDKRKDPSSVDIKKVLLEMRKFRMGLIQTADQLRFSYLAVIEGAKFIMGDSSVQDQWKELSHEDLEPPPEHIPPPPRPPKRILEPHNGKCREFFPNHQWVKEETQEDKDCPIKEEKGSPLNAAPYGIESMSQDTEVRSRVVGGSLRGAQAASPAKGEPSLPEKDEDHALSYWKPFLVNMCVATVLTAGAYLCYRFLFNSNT
# Procedure: Nitrophenyl phosphate (pNPP) was used as substrate to determine the enzyme inhibition test. Fifty microliter reaction buffer (pH 6.5) including 50 mM HEPES, 100 mM NaCl, 1 mM EDTA, and 1 mM dithiothreitol (DTT) and compounds was added to 96 well plates, and incubate at room temperature for 15 min. Further, 50 μl reaction buffer with 50 mM pNPP was added and incubated at 37°C for 60 min. […] The phosphatase activity was determined by absorbance measured at 405 nm. The test was repeated three times for each compound. The IC50 value was derived from three independent experiments.
# CD45 = biological target: T2, CD45 (Homo sapiens, UniProt P08575); assay: Inhibition of protein tyrosine phosphatase (PTPs) assay, pNPP substrate: CD45
# T2 sequence (P08575 26-1306): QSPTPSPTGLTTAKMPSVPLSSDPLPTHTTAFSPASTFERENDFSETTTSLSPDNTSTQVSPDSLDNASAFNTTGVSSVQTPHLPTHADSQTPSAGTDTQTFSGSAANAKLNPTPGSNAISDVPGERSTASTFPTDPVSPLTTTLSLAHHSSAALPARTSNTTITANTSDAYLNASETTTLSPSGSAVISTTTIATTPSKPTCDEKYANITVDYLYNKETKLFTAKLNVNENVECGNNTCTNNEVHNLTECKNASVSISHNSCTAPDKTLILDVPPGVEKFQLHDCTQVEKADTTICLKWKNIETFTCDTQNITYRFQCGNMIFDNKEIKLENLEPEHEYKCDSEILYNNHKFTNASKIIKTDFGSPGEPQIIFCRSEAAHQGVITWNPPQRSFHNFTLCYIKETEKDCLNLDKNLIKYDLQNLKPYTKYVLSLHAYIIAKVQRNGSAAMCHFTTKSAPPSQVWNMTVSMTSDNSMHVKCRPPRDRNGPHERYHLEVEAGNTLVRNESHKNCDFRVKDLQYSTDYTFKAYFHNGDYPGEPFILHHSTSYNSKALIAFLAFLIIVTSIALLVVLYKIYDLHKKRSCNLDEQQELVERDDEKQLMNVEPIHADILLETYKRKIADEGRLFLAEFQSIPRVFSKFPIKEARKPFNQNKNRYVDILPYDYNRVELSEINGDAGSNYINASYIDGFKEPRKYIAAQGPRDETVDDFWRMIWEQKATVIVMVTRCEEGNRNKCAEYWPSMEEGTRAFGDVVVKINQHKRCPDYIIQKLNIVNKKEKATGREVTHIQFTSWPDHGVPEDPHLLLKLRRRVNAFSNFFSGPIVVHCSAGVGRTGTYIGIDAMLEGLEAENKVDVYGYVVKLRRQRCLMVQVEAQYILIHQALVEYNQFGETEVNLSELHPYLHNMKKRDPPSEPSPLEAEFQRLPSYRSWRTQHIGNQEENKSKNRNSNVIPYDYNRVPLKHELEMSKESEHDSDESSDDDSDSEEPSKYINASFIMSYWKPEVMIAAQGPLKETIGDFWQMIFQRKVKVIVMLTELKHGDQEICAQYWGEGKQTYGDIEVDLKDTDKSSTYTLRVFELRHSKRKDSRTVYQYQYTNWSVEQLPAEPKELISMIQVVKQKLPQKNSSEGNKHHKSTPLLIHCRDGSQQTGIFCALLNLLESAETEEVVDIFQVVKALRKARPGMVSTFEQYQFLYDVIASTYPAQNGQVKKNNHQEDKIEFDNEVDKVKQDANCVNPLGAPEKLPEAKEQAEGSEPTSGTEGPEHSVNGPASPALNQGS
# Source text: (§1) Protein tyrosine phosphatase (PTPs) plays an important role in many human threatening diseases, such as PTP1B, an effective target for the treatment of type II diabetes; CD45, an effective target for the treatment of leukemia; and TCPTP, a reliable target for the treatment of cancer involved in multiple signaling pathways ([Ruddraraju and Zhang, 2017]). Nitrophenyl phosphate (pNPP) was used as substrate to determine the enzyme inhibition test. Fifty microliter reaction buffer (pH 6.5) including 50 mM HEPES, 100 mM NaCl, 1 mM EDTA, and 1 mM dithiothreitol (DTT) and compounds was added to 96 well plates, and incubate at room temperature for 15 min. Further, 50 μl reaction buffer with 50 mM pNPP was added and incubated at 37°C for 60 min. Na3VO4 was used as positive control and DMSO as the negative control. The phosphatase activity was determined by absorbance measured at 405 nm. The test was repeated three times for each compound. The IC50 value was derived from three independent experiments.
# (§2) Protein tyrosine phosphatase (PTPs) plays an important role in many human threatening diseases, such as PTP1B, an effective target for the treatment of type II diabetes; CD45, an effective target for the treatment of leukemia; and TCPTP, a reliable target for the treatment of cancer involved in multiple signaling pathways ([Zhang, 2003]; [Vintonyak et al., 2009]).
# TCPTP = biological target: T3, TCPTP (Homo sapiens, UniProt P17706); assay: Inhibition of protein tyrosine phosphatase (PTPs) assay, pNPP substrate: TCPTP
# T3 sequence (P17706 1-415): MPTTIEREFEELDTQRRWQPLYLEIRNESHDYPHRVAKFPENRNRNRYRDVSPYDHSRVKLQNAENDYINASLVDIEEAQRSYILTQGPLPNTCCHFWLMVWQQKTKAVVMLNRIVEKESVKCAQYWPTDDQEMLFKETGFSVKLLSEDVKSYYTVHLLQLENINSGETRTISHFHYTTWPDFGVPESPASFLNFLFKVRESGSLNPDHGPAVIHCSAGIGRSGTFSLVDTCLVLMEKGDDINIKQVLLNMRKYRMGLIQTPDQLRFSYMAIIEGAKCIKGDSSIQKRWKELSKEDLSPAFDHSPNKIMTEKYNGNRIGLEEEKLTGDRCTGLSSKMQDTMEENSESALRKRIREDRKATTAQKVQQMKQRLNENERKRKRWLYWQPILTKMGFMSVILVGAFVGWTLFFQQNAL
# Source text: as §1, §2
# IDH1 R132h = IDH1 R132h (Homo sapiens, UniProt O75874, R132H); assay: Isocitrate dehydrogenase inhibition assay (NADPH/α-KG, WST-8 readout); conditions: for IC50: room temperature 60 min, absorbance 450 nm, repeated three times
# Procedure: DMSO was used to configure the compounds into different concentrations as test samples. 2 mm NADPH (3 μl) and 1 m α-Kg (0.1 μl) was added to IDH1 buffer (pH 6.5; 96 μl) solution as reaction substrate in the reaction system. Then, the test samples (2.0 μl), IDH1 R132h (0.4 μl), PMS (0.1 μl) and 15 mM WST-8 (1.0 μl) were successively added to the above mixture and reacted at room temperature for 60 min. AGI-5198 was used as positive control and DMSO as the negative control. The absorption peak of 450 nm was detected by microplate reader. The test was repeated three times for each test samples, and the IC50 was calculated by GraphPad Prism.
# We have learned that isocitrate dehydrogenase (IDH) gene mutations are closely related to the occurrence and development of tumors ([Fujii et al., 2016]). IDH mutations mainly occur in malignant tumors such as glioma, acute myeloid leukemia, chondrosarcoma, and intrahepatic cholangiocarcinoma. IDH mutation ultimately promote the occurrence and development of tumors ([Gondim et al., 2019]). Therefore, inhibition of IDH1 R132h activity was screened using the above compounds. AGI-5198 was used as a positive control in this experiment with the IC50 value of 0.04 μg/ml.
# [1] = pNPP substrate, pH 6.5, 37°C 60 min, absorbance 405 nm, three independent experiments, read-out: IC50 PTP1B (converted)
# [2] = pNPP substrate, pH 6.5, 37°C 60 min, absorbance 405 nm, three independent experiments, read-out: IC50 CD45 (converted)
# [3] = pNPP substrate, pH 6.5, 37°C 60 min, absorbance 405 nm, three independent experiments, read-out: IC50 TCPTP
# [4] = pNPP substrate, pH 6.5, 37°C 60 min, absorbance 405 nm, three independent experiments
# Chain of IDH1 R132h (O75874 whole entry R132H): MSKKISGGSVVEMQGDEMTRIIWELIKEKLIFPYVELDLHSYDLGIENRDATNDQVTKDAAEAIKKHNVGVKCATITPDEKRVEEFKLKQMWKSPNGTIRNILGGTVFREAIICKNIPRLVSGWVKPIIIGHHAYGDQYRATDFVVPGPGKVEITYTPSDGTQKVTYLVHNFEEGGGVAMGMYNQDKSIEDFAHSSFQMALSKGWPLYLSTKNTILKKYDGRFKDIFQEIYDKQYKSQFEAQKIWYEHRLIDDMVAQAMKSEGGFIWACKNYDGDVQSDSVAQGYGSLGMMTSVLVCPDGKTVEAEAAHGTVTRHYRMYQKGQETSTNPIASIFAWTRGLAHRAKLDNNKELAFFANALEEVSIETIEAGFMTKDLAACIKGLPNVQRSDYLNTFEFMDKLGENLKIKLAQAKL
Structure (SMILES),IC50 (PTP1B; [1]) [µM],IC50 (CD45; [2]) [µM],IC50 (TCPTP; [3]) [µM],IC50 (IDH1 R132h) [µM],further results
"COc1cc(O)c2c(c1)C1C[C@H](O)[C@@H](O)C[C@@]1(C)OC2=O (some centres unmarked) [Compound 9, 3-epidihydroaltenuene A]",3.3,> 340,> 340,,inhibitory activity against PTP1B (in words) (PTP1B): specific and significant inhibition; also recorded: significant inhibitory activity
"COc1cc(O)c2c(c1)C1=CC3(CC(O)C(=O)O3)C(O)CC1(C)OC2=O (centres unmarked) [Compound 3, Alternapyrone M]",,,,> 147,
"COc1cc(O)c2c(c1)C1=C[C@H](O)[C@@H](O)C[C@]1(C)OC2=O [Compound 10, 5-hydroxyepialtenuene]",156,> 342,> 342,,
"Cc1cc(O)cc2oc(=O)c3c(O)cc(O)cc3c12 [Compound 6, alternariol]",,,,,"IC50 (PTP1B): 61 µM; IC50 (CD45): 22.5 µM; inhibitory activity against CD45 (in words) (CD45; in vitro, compared with Na3VO4): definite inhibitory activity; IC50 (TCPTP): 30.2 µM; inhibitory activity against TCPTP (in words) (TCPTP; in vitro, compared with Na3VO4): definite inhibitory activity"
"[Na+].[Na+].[Na+].[O]=[V]([O-])([O-])[O-] [Na3VO4, reference compound]",,,,,IC50 CD45 (CD45; [4]): 0.36 ± 0.09 µg/mL; IC50 TCPTP (TCPTP; [4]): 0.44 ± 0.11 µg/mL
"COc1cc(O)c2c(c1)C1(CC(O)C(O)C=C1C)OC2=O (centres unmarked) [Compound 1, Alternafurone A]",,,,101,inhibitory activity against IDH1 R132h (in words) (IDH1 R132h): inhibitory activities
"COc1cc(O)c2c(c1)C1=C[C@@H](O)[C@@H](O)C[C@]1(C)OC2=O [Compound 11, 5′-epialtenuene]",187,> 342,> 342,,
"Cc1cc(O)cc2oc(CO)cc(=O)c12 [Compound 19, 7-hydroxy-2-hydroxymethyl-5-methyl-4H-chromen-4-one]",> 485,120,> 485,,
"COC(=O)C1CC2(O)CC3(C)OC(=O)c4c(O)cc(OC)cc4C3=CC2(O)O1 (centres unmarked) [Compound 4, Alternapyrone N]",,,,36,inhibitory activity against IDH1 R132h (in words) (IDH1 R132h): inhibitory activities
"Cc1ccccc1C(C(=O)NC1CCCCC1)N(C(=O)Cn1ccnc1C)c1cccc(F)c1 (centres unmarked) [AGI-5198, reference compound]",,,,0.0865,
"COc1cc(O)cc(C2=C(C)C[C@@H](O)C2=O)c1 [Compound 14, (+)-nigrosporaol A]",383,> 427,> 427,,
"COc1cc(O)c2c(c1)C1=CC(O)C(O)CC1(C)OC2=O (centres unmarked) [Compound 12, 4′-epialtenuene]",25.5,> 342,> 342,,inhibitory activity against PTP1B (in words) (PTP1B): inhibitory activity
"COc1cc(O)c2c(c1)C1(CC(O)C(O)C=C1C)OC2=O (centres unmarked) [Compound 2, Alternafurone B]",,,,66.4,inhibitory activity against IDH1 R132h (in words) (IDH1 R132h): inhibitory activities
"COc1cc(O)c2c(=O)oc3cc(O)cc(C)c3c2c1 [Compound 7, alternariol 9-methyl ether]",,,,,IC50 (PTP1B): 139 µM; IC50 (CD45): 72.8 µM; IC50 (TCPTP): 211 µM
"Cc1cc(=O)c2c(C)cc(O)cc2o1 [Compound 17, 2,5-dimethyl-7-hydroxychromone]",> 526,104,> 526,,
